Experiments:
[1] = biological target: Serine/threonine-protein kinase WNK4 (Homo sapiens) (UniProt Q96J92); assay: Inhibition of wild-type human partial length WNK4 (A31 to D461 residues) expressed in mammalian expression system at 1 uM by Kinomescan method relative to control
[2] = biological target: Discoidin domain-containing receptor 2 (Homo sapiens) (UniProt Q16832); assay: Inhibition of wild-type human partial length DDR2 (V555 to E855 residues) expressed in mammalian expression system at 1 uM by Kinomescan method relative to control
[3] = test system: Fibroblast growth factor receptor 3 (Homo sapiens), P22607 [G697C]; assay: Inhibition of human partial length FGFR3 G697C mutant (R442 to S771 residues) expressed in bacterial expression system at 1 uM by Kinomescan method relative to control
[4] = biological target: Homeodomain-interacting protein kinase 2 (Homo sapiens) (UniProt Q9H2X6); assay: Inhibition of wild-type human partial length HIPK2 (M153 to S564 residues) expressed in mammalian expression system at 1 uM by Kinomescan method relative to control
[5] = test system: Phosphatidylinositol 4,5-bisphosphate 3-kinase catalytic subunit alpha isoform (Homo sapiens), P42336 [C420R]; assay: Inhibition of human partial length PIK3CA C420R mutant (R108 to N1068 residues) expressed in mammalian expression system at 1 uM by Kinomescan method relative to control
Sequence of Phosphatidylinositol 4,5-bisphosphate 3-kinase catalytic subunit alpha isoform (Homo sapiens), P42336 [C420R] (P42336 whole entry C420R, the tested form may be a part, canonical isoform): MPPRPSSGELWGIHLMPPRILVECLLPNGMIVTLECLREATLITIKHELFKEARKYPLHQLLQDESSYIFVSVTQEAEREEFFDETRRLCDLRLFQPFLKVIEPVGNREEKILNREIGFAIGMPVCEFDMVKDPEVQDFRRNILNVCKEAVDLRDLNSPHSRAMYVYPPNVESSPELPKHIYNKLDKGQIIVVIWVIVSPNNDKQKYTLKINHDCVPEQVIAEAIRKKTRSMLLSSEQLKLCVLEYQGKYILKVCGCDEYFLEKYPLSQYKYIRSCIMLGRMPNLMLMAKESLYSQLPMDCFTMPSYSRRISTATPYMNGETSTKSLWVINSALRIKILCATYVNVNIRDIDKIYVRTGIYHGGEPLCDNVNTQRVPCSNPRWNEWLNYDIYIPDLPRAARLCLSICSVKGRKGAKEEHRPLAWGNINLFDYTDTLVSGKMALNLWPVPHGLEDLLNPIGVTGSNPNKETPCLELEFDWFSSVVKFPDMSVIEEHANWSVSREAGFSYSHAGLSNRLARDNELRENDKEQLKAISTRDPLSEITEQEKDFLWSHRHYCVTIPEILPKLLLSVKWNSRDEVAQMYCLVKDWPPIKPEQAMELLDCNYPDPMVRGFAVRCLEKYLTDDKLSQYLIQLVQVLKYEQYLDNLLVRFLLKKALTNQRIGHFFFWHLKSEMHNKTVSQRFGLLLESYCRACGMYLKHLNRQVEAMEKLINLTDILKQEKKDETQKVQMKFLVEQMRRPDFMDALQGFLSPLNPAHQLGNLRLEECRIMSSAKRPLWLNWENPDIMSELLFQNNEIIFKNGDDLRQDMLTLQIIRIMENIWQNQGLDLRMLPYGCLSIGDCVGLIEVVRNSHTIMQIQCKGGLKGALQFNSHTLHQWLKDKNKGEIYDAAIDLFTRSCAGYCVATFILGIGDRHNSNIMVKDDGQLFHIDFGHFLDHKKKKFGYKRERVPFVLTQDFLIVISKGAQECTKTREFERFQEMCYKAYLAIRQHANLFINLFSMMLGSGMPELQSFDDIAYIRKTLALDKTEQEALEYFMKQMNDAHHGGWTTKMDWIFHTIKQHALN

[6] = biological target: Wee1-like protein kinase (Homo sapiens) (UniProt P30291); assay: Inhibition of wild-type human partial length WEE1 (M291 to K575 residues) expressed in bacterial expression system at 1 uM by Kinomescan method relative to control
Sequence of Wee1-like protein kinase (Homo sapiens) (P30291 whole entry, looked up, the tested form may be a part): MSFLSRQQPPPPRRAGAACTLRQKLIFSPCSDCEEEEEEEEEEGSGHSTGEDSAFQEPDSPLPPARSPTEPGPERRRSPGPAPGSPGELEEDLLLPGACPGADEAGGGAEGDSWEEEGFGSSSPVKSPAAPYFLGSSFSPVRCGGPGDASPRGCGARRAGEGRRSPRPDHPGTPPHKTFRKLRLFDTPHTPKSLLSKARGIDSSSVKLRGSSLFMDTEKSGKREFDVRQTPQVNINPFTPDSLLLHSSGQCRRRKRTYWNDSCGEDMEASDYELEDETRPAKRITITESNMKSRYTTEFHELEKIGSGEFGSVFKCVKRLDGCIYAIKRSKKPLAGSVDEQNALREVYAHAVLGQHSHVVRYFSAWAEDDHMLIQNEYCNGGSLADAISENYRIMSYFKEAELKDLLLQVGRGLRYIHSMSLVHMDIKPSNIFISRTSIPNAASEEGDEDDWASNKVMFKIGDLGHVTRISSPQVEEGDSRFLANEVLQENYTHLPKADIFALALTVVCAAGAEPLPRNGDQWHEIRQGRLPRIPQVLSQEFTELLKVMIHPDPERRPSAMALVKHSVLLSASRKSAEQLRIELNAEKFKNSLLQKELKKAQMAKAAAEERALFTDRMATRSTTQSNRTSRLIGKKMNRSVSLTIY

[7] = biological target: Serine/threonine-protein kinase tousled-like 1 (Homo sapiens) (UniProt Q9UKI8); assay: Inhibition of wild-type human partial length TLK1 (K447 to A754 residues) expressed in bacterial expression system at 1 uM by Kinomescan method relative to control
Sequence of Serine/threonine-protein kinase tousled-like 1 (Homo sapiens) (Q9UKI8 whole entry, the tested form may be a part): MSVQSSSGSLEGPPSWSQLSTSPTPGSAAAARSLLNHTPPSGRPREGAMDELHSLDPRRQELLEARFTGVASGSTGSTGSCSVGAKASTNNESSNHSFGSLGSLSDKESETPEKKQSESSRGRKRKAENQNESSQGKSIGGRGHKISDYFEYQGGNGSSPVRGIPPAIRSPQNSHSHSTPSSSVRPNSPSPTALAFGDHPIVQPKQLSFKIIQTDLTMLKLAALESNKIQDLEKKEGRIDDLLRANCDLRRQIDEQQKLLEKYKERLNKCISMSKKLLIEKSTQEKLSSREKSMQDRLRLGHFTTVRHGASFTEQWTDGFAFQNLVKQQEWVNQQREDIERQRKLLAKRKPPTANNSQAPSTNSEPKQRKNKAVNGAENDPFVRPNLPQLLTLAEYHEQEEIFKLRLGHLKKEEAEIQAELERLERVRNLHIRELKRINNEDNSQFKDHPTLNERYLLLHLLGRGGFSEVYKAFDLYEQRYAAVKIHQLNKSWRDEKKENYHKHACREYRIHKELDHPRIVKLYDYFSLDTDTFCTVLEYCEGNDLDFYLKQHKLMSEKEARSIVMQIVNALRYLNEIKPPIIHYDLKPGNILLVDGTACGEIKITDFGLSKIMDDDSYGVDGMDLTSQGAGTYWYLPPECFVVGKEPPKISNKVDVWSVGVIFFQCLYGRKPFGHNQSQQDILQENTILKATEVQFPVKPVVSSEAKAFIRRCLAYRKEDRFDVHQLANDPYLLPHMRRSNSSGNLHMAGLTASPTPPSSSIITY

[8] = biological target: Mitotic checkpoint serine/threonine-protein kinase BUB1 (Homo sapiens) (UniProt O43683); assay: Inhibition of wild-type human partial length BUB1 (Q724 to K1085 residues) expressed in mammalian expression system at 1 uM by Kinomescan method relative to control
[9] = biological target: Phosphatidylinositol 4-phosphate 5-kinase type-1 gamma (Homo sapiens) (UniProt O60331); assay: Inhibition of wild-type human partial length PIP5K1C (M1 to T668 residues) expressed in mammalian expression system at 1 uM by Kinomescan method relative to control
[10] = biological target: Serine/threonine-protein kinase PAK 1 (Homo sapiens) (UniProt Q13153); assay: Inhibition of wild-type human partial length PAK1 (S149 to H545 residues) expressed in bacterial expression system at 1 uM by Kinomescan method relative to control
[11] = biological target: Insulin receptor (Homo sapiens) (UniProt P06213); assay: Inhibition of wild-type human partial length INSR (P997 to E1318 residues) expressed in mammalian expression system at 1 uM by Kinomescan method relative to control
Sequence of Insulin receptor (Homo sapiens) (P06213 28-758 limits assumed): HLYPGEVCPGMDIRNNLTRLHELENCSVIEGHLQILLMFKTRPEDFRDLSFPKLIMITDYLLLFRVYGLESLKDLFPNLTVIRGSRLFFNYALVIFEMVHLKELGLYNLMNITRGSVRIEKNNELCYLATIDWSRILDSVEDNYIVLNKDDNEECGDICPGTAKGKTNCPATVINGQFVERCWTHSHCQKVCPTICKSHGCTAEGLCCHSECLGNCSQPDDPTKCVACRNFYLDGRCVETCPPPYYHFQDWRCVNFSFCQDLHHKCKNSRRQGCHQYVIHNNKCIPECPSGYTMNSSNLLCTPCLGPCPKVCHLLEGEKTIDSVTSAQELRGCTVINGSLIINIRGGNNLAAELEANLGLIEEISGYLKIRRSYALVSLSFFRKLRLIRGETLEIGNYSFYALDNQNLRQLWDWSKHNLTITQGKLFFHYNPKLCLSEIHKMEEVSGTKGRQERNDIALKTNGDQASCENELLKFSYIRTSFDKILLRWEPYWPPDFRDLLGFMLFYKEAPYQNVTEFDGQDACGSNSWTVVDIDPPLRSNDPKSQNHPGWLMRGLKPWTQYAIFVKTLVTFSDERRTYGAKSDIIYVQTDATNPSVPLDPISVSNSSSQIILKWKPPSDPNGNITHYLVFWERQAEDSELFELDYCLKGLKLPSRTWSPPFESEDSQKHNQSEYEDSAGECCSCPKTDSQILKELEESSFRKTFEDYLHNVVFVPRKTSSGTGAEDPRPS
Sequence of Insulin receptor (Homo sapiens) (P06213 763-1382 limits assumed): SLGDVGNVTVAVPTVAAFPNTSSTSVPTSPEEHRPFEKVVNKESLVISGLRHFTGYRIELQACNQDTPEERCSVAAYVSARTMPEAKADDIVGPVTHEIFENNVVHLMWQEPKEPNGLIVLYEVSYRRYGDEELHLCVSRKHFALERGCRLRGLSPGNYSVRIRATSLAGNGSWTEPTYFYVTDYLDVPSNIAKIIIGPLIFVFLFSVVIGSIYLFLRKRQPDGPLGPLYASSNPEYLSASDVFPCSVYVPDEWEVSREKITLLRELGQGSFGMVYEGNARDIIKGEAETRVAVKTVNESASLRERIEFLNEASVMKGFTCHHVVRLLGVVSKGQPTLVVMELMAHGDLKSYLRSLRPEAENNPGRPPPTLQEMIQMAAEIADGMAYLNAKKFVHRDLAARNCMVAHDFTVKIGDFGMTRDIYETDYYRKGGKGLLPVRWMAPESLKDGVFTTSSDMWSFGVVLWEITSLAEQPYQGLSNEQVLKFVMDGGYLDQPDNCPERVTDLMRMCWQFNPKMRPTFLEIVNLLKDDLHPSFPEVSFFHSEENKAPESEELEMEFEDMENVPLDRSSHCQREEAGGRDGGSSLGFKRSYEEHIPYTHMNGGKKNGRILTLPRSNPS

[12] = biological target: Serine/threonine-protein kinase MRCK beta (Homo sapiens) (UniProt Q9Y5S2); assay: Inhibition of wild-type human partial length MRCKB (L56 to S417 residues) expressed in bacterial expression system at 1 uM by Kinomescan method relative to control
[13] = test system: Tyrosine-protein kinase ABL1 (Homo sapiens), P00519 [F317I]; assay: Inhibition of human non-phosphorylated ABL1 F317I mutant (S229 to K512 residues) expressed in mammalian expression system at 10 uM by Kinomescan method relative to control
[14] = biological target: MAP/microtubule affinity-regulating kinase 3 (Homo sapiens) (UniProt P27448); assay: Inhibition of wild-type human full length MARK3 (M1 to L729 residues) expressed in bacterial expression system at 10 uM by Kinomescan method relative to control
[15] = test system: Receptor-type tyrosine-protein kinase FLT3 (Homo sapiens), P36888 [UNDEFINED MUTATION]; assay: Inhibition of human partial length FLT3 ITD/F691L double mutant expressed in bacterial expression system at 10 uM by Kinomescan method relative to control
[16] = biological target: Interferon-induced, double-stranded RNA-activated protein kinase (Homo sapiens) (UniProt P19525); assay: Inhibition of wild-type human partial length PRKR (F247 to C551 residues) expressed in bacterial expression system at 10 uM by Kinomescan method relative to control
Sequence of Interferon-induced, double-stranded RNA-activated protein kinase (Homo sapiens) (P19525 whole entry, the tested form may be a part): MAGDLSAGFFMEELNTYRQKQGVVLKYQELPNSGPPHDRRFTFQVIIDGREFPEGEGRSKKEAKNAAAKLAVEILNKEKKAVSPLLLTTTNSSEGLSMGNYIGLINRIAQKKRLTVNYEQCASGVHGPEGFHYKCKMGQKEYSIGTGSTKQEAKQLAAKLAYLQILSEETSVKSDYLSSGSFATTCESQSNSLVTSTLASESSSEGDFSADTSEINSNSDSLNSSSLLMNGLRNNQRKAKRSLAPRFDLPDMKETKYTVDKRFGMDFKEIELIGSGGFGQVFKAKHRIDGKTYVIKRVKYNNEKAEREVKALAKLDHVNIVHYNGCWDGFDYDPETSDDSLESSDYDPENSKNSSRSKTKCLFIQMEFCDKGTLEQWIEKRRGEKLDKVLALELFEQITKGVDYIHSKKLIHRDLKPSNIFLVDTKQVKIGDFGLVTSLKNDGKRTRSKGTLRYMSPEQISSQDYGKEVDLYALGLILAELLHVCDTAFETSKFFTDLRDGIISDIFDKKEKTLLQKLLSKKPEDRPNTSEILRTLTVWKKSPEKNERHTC

[17] = biological target: Serine/threonine-protein kinase PLK3 (Homo sapiens) (UniProt Q9H4B4); assay: Inhibition of wild-type human partial length PLK3 (A42 to L334 residues) expressed in mammalian expression system at 10 uM by Kinomescan method relative to control
[18] = biological target: Tyrosine-protein kinase Blk (Homo sapiens) (UniProt P51451); assay: Inhibition of wild-type human partial length BLK (G211 to L503 residues) expressed in bacterial expression system at 10 uM by Kinomescan method relative to control
[19] = biological target: Serine/threonine-protein kinase Sgk2 (Homo sapiens) (UniProt Q9HBY8); assay: Inhibition of wild-type human partial length SGK2 (L54 to C427 residues) expressed in mammalian expression system at 10 uM by Kinomescan method relative to control
[20] = biological target: Serine/threonine-protein kinase MAK (Homo sapiens) (UniProt P20794); assay: Inhibition of wild-type human partial length MAK (M1 to P314 residues) expressed in bacterial expression system at 10 uM by Kinomescan method relative to control
[21] = biological target: MAP kinase-interacting serine/threonine-protein kinase 1 (Homo sapiens) (UniProt Q9BUB5); assay: Inhibition of wild-type human full length MKNK1 (M1 to L424 residues) expressed in mammalian expression system at 10 uM by Kinomescan method relative to control
Sequence of MAP kinase-interacting serine/threonine-protein kinase 1 (Homo sapiens) (Q9BUB5 whole entry, looked up, the tested form may be a part): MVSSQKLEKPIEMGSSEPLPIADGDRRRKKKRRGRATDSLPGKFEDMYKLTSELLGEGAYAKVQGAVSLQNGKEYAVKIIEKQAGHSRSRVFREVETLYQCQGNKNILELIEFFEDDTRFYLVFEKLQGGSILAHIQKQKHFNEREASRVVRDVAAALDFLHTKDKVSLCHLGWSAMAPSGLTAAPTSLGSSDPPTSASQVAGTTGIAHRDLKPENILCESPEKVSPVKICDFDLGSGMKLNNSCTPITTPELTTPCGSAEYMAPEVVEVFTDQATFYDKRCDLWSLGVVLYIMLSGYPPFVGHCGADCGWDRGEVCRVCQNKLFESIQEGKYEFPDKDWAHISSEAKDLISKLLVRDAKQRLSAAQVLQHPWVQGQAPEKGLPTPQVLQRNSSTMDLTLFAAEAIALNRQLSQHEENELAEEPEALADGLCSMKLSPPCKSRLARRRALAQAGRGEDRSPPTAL

[22] = test system: Tyrosine-protein kinase ABL1 (Homo sapiens), P00519 [F317L]; assay: Inhibition of human phosphorylated ABL1 F317L mutant (S229 to K512 residues) expressed in mammalian expression system at 10 uM by Kinomescan method relative to control
[23] = test system: Mast/stem cell growth factor receptor Kit (Homo sapiens), P10721 [D816V]; assay: Inhibition of human partial length KIT D816V mutant (I571 to D952 residues) expressed in bacterial expression system at 10 uM by Kinomescan method relative to control
[24] = biological target: High affinity nerve growth factor receptor (Homo sapiens) (UniProt P04629); assay: Inhibition of wild-type human partial length TRKA (G475 to G790 residues) expressed in mammalian expression system at 10 uM by Kinomescan method relative to control
[25] = biological target: Serine/threonine-protein kinase pim-3 (Homo sapiens) (UniProt Q86V86); assay: Inhibition of wild-type human partial length PIM3 (G16 to A317 residues) expressed in bacterial expression system at 10 uM by Kinomescan method relative to control
[26] = biological target: Homeodomain-interacting protein kinase 1 (Homo sapiens) (UniProt Q86Z02); assay: Inhibition of wild-type human partial length HIPK1 (M146 to I555 residues) expressed in mammalian expression system at 10 uM by Kinomescan method relative to control

## O=C(Nc1cccc([C@@H]2CN(c3ncnc4[nH]ccc34)CCN2CCO)c1)Nc1c(F)cccc1N1CCCC1
[1]
  inhibition: 96%
[2]
  inhibition: 73%
[3]
  inhibition: 100%
[4]
  inhibition: 100%
[5]
  inhibition: 89%
[6]
  inhibition: 100%
[7]
  inhibition: 100%
[8]
  inhibition: 87%
[9]
  inhibition: 70%
[10]
  inhibition: 75%
[11]
  inhibition: 100%
[12]
  inhibition: 100%

## O=C(Nc1cccc([C@H]2CCCN(c3ncnc4[nH]ccc34)C2)c1)Nc1ccccc1N1CCCC1
[13]
  inhibition: 100%
[14]
  inhibition: 100%
[15]
  inhibition: 3.6%
[16]
  inhibition: 87%
[17]
  inhibition: 65%
[18]
  inhibition: 43%
[19]
  inhibition: 34%
[20]
  inhibition: 100%
[21]
  inhibition: 55%
[22]
  inhibition: 87%
[23]
  inhibition: 0.9%
[24]
  inhibition: 26%
[25]
  inhibition: 89%
[26]
  inhibition: 61%

— ChEMBL document CHEMBL4387741, “Optimization of novel reversible Bruton's tyrosine kinase inhibitors identified using Tethering-fragment-based screens” (Bioorg Med Chem, 2019)
